≈ marks a conversion by molar mass, not a printed value. Where “and” joins values, the source holds several entries; their conditions need not be identical. Equal values may be shown once. Read-outs that look alike come from different tables or passages of the source.
Legend:
[1] = cited from earlier work
[2] = Evaporation of I2 from I2 and I- mixed solutions in an open and well-ventilated space; type: physicochemical; settings: initial I2 concentration 0.99 mm, open system
Excerpt: The effects of temperature, concentration of I2, and presence of I— on the evaporation of I2 in I2 and I— mixed solutions were investigated in an open and well-ventilated space. From the experiments, it was confirmed that the evaporation rate of I2 increased exponentially as the solution temperature increased, showing a similar trend with temperature dependence of the saturated vapor pressure of I2.
The phenomenon that I2 evaporation was expedited at higher temperature can be explained by temperature dependency of the evaporation enthalpy and saturated vapor pressure. For an open system, the vapor pressure of elemental iodine increases about 14 torr, or 0.27 psi.

II [Elemental iodine, Elemental iodine (I2)]
free iodine which is soluble in water ([1]; 20° C.): 290 ppm
solubility in water ([1]; 20° C.): 0.29 g/L (≈ 1.14 mM)
solubility in water ([1]; 25° C.): 0.33 g/l and 1.2 mM
solubility in water ([1]; 50° C.): 0.78 g/L (≈ 3.07 mM)
free iodine which is soluble in water ([1]; 70° C.): 1,100 ppm
free iodine which is soluble in water ([1]; 80° C.): 1,250 ppm
solubility in water ([1]; 80° C.): 1.25 g/L (≈ 4.92 mM)
lapsed time required to reduce less than 10% of the initial concentration ([2]; 50° C.): ~30 min
lapsed time required to reduce less than 10% of the initial concentration ([2]; 80° C.): ~7 min

Reference: US20230390397A1, “SYSTEM, METHOD AND PROCESS FOR SELF-STERILIZATION OF IODINE-[…]” (HDR LLC, priority 2022, published 2023)
